Results from patent publication US10519177B2, “Heterocyclic compounds and uses thereof” (Plexxikon Inc., priority 2013, dated 2019).
pIC50: −log10 of the molar value.

What follows are compounds tested on bromodomain (assay: at least one of the bromodomain cell assays of Example 57). Settings: at least one of the bromodomain cell assays described in Example 57; read-out: IC50 in at least one of the bromodomain cell assays.
Type: cell-based

pIC50	Compound
> 5.00	Cc1nnn(C)c1-c1cnc2c(-c3ccc(CC(=O)O)cc3)cn(CC3CCC(F)(F)CC3)c2c1 [P-0811, 2-[4-[1-[(4,4-difluorocyclohexyl)methyl]-6-(3,5-dimethyltriazol-4-yl)pyrrolo[3,2-b]pyridin-3-yl]phenyl]acetic acid]
> 5.00	COc1cc(-c2cn(CC3(C)CCCCC3)c3cc(-c4c(C)noc4C)cnc23)ccc1C(=O)O [P-0780, 4-[6-(3,5-dimethylisoxazol-4-yl)-1-[(1-methylcyclohexyl)methyl]pyrrolo[3,2-b]pyridin-3-yl]-2-methoxy-benzoic acid]
> 5.00	Cc1cc(-c2cnc3c(-c4ccc(C(=O)O)cc4)cn([C@@H](C)c4ccccn4)c3c2)cn(C)c1=O [P-0761, 4-[6-(1,5-dimethyl-6-oxo-3-pyridyl)-1-[(1S)-1-(2-pyridyl)ethyl]pyrrolo[3,2-b]pyridin-3-yl]benzoic acid]
> 5.00	Cc1noc(C)c1-c1cnc2c(-c3ccc(S(C)(=O)=O)cc3)cn(CC3CCC(F)(F)CC3)c2c1 [P-0619, 4-[1-[(4,4-difluorocyclohexyl)methyl]-3-(4-methylsulfonylphenyl)pyrrolo[3,2-b]pyridin-6-yl]-3,5-dimethyl-isoxazole]
> 5.00	Cc1noc(C)c1-c1cnc2c(-c3ccc(C(=O)OC(C)C)cc3)cn(CC3CCC(F)(F)CC3)c2c1 [P-0618, isopropyl 4-[1-[(4,4-difluorocyclohexyl)methyl]-6-(3,5-dimethylisoxazol-4-yl)pyrrolo[3,2-b]pyridin-3-yl]benzoate]
> 5.00	Cc1noc(C)c1-c1cnc2c(-c3cnn(C)c3)cn([C@@H](c3ccccc3)c3ccccn3)c2c1 [P-0721, 3,5-dimethyl-4-[3-(1-methylpyrazol-4-yl)-1-[(S)-phenyl(2-pyridyl)methyl]pyrrolo[3,2-b]pyridin-6-yl]isoxazole]
> 5.00	Cc1cc(-c2cnc3c(-c4ccc(C(=O)O)cc4)cn(CC4CCC(F)(F)CC4)c3c2)cn(C)c1=O [P-0613, 4-[1-[(4,4-difluorocyclohexyl)methyl]-6-(1,5-dimethyl-6-oxo-3-pyridyl)pyrrolo[3,2-b]pyridin-3-yl]benzoic acid]
> 5.00	[2H]C([2H])([2H])c1ccc(-c2cn([C@H](c3ccccc3)c3ccccn3)c3cc(-c4c(C)noc4C)cnc23)cc1 [P-0787, 3,5-dimethyl-4-[1-[(R)-phenyl(2-pyridyl)methyl]-3-[4-(trideuteriomethyl)phenyl]pyrrolo[3,2-b]pyridin-6-yl]isoxazole]
> 5.00	Cc1ccc(-c2cn([C@@H](c3ccccn3)C3CCCCC3)c3cc(-c4c(C)noc4C)cnc23)cc1 [P-0817, 4-[1-[(R)-cyclohexyl(2-pyridyl)methyl]-3-(p-tolyl)pyrrolo[3,2-b]pyridin-6-yl]-3,5-dimethyl-isoxazole]
> 5.00	CCOC(=O)c1ccc(-c2cn([C@H](c3ccccc3)c3ccccn3)c3cc(-c4c(C)noc4C)ccc23)cc1 [P-0756, ethyl 4-[6-(3,5-dimethylisoxazol-4-yl)-1-[(R)-phenyl(2-pyridyl)methyl]indol-3-yl]benzoate]
> 5.00	Cc1noc(C)c1-c1cnc2c(-c3ccc(CO)cc3)cn([C@H](c3ccccc3)c3ccccn3)c2c1 [P-0724, [4-[6-(3,5-dimethylisoxazol-4-yl)-1-[(R)-phenyl(2-pyridyl)methyl]pyrrolo[3,2-b]pyridin-3-yl]phenyl]methanol]
> 5.00	[2H]C([2H])([2H])c1ccc(-c2cn(CC3CCCCC3)c3cc(-c4c(C)noc4C)cnc23)cc1 [P-0785, 4-[1-(cyclohexylmethyl)-3-[4-(trideuteriomethyl)phenyl]pyrrolo[3,2-b]pyridin-6-yl]-3,5-dimethyl-isoxazole]
> 5.00	C[C@@H](c1ccccn1)n1cc(-c2ccc(C(=O)O)cc2)c2ccc(-c3cc(Cl)c(=O)n(C)c3)cc21 [P-0765, 4-[6-(5-chloro-1-methyl-6-oxo-3-pyridyl)-1-[(1S)-1-(2-pyridyl)ethyl]indol-3-yl]benzoic acid]
> 5.00	Cc1noc(C)c1-c1ccc2c(-c3ccc([N+](=O)[O-])nc3)cn(CC3CCC(F)(F)CC3)c2c1 [P-0750, 4-[1-[(4,4-difluorocyclohexyl)methyl]-3-(6-nitro-3-pyridyl)indol-6-yl]-3,5-dimethyl-isoxazol]
> 5.00	Cc1noc(C)c1-c1cnc2c(-c3ccc(B(O)O)cc3)cn(CC3CCCCC3)c2c1 [P-0709, [4-[1-(cyclohexylmethyl)-6-(3,5-dimethylisoxazol-4-yl)pyrrolo[3,2-b]pyridin-3-yl]phenyl]boronic acid]
> 5.00	Cc1noc(C)c1-c1cnc2[nH]cc(C(c3ccccn3)c3ccccn3)c2c1 [P-0733, 4-[3-[bis(2-pyridyl)methyl]-1H-pyrrolo[2,3-b]pyridin-5-yl]-3,5-dimethyl-isoxazole]
> 5.00	Cc1noc(C)c1-c1cnc2c(-c3ccc(C(C)(C)C)cc3)cn([C@@H](c3ccccc3)c3ccccn3)c2c1 [P-0813, 4-[3-(4-tert-butylphenyl)-1-[(S)-phenyl(2-pyridyl)methyl]pyrrolo[3,2-b]pyridin-6-yl]-3,5-dimethyl-isoxazole]
> 5.00	Cc1noc(C)c1-c1cnc2c(-c3ccc4c(c3)CCOC4=O)cn(CC3CCCCC3)c2c1 [P-0799, 6-[1-(cyclohexylmethyl)-6-(3,5-dimethylisoxazol-4-yl)pyrrolo[3,2-b]pyridin-3-yl]isochroman-1-one]

pIC50	Compound
> 5.00	Cc1noc(C)c1-c1ccc2c(-c3cnn(C)c3)cn(S(=O)(=O)c3ccccc3)c2c1 [P-0230, 4-[1-(benzenesulfonyl)-3-(1-methylpyrazol-4-yl)indol-6-yl]-3,5-dimethyl-isoxazole]
> 5.00	Cc1noc(C)c1-c1cnc2c(-c3ccc(C(=O)O)cc3)cn(CC3CC4CC4C3)c2c1 (stereo not drawn) [P-0621, 4-[1-(3-bicyclo[3.1.0]hexanylmethyl)-6-(3,5-dimethylisoxazol-4-yl)pyrrolo[3,2-b]pyridin-3-yl]benzoic acid]
> 5.00	Cc1noc(C)c1-c1ccc2c(-c3ccc(C#N)nc3)cn([C@H](c3ccccc3)c3ccccn3)c2c1 [P-0758, 5-[6-(3,5-dimethylisoxazol-4-yl)-1-[(R)-phenyl(2-pyridyl)methyl]indol-3-yl]pyridine-2-carbonitrile]
> 5.00	Cc1ccc(-c2cn(CC3CCOCC3)c3cc(-c4c(C)noc4C)cnc23)cc1 [P-0793, 3,5-dimethyl-4-[3-(p-tolyl)-1-(tetrahydropyran-4-ylmethyl)pyrrolo[3,2-b]pyridin-6-yl]isoxazole]
> 5.00	Cc1noc(C)c1-c1cnc2c(-c3ccc(CC(=O)O)cc3)cn(CC3CCOCC3)c2c1 [P-0771, 2-[4-[6-(3,5-dimethylisoxazol-4-yl)-1-(tetrahydropyran-4-ylmethyl)pyrrolo[3,2-b]pyridin-3-yl]phenyl]acetic acid]
> 5.00	Cc1noc(C)c1-c1cnc2c(-c3ccc(C(=O)O)cc3)cn([C@H](c3ccccn3)C3CCCCC3)c2c1 [P-0815, 4-[1-[(S)-cyclohexyl(2-pyridyl)methyl]-6-(3,5-dimethylisoxazol-4-yl)pyrrolo[3,2-b]pyridin-3-yl]benzoic acid]
> 5.00	Cc1noc(C)c1-c1cnc2c(F)cn([C@H](c3ccccc3)c3ccccn3)c2c1 [P-0723, 4-[3-fluoro-1-[(R)-phenyl(2-pyridyl)methyl]pyrrolo[3,2-b]pyridin-6-yl]-3,5-dimethyl-isoxazole]
> 5.00	COC(=O)c1ccc(-c2cn([C@@H](c3ccccc3)c3ccccn3)c3cc(-c4c(C)noc4C)cnc23)cc1 [P-0715, methyl 4-[6-(3,5-dimethylisoxazol-4-yl)-1-[(S)-phenyl(2-pyridyl)methyl]pyrrolo[3,2-b]pyridin-3-yl]benzoate]
> 5.00	Cc1ccc(-c2cn([C@@H](C)c3ccccn3)c3cc(-c4cc(C)c(=O)n(C)c4)cnc23)cc1 [P-0791, 1,3-dimethyl-5-[3-(p-tolyl)-1-[(1S)-1-(2-pyridyl)ethyl]pyrrolo[3,2-b]pyridin-6-yl]pyridin-2-one]
> 5.00	Cc1noc(C)c1-c1ccc2c(-c3ccc(C4(C(=O)O)CC4)cc3)cn(CC3CCC(F)(F)CC3)c2c1 [P-0748, 1-[4-[1-[(4,4-difluorocyclohexyl)methyl]-6-(3,5-dimethylisoxazol-4-yl)indol-3-yl]phenyl]cyclopropanecarboxylic acid]
> 5.00	Cc1noc(C)c1-c1cnc2c(-c3ccc(CO)cc3)cn([C@@H](c3ccccc3)c3ccccn3)c2c1 [P-0713, [4-[6-(3,5-dimethylisoxazol-4-yl)-1-[(S)-phenyl(2-pyridyl)methyl]pyrrolo[3,2-b]pyridin-3-yl]phenyl]methanol]
> 5.00	COc1cc(-c2cn(CC3CCC(F)(F)CC3)c3cc(-c4c(C)noc4C)ccc23)ccc1C(=O)O [P-0746, 4-[1-[(4,4-difluorocyclohexyl)methyl]-6-(3,5-dimethylisoxazol-4-yl)indol-3-yl]-2-methoxy-benzoic acid]
> 5.00	COC(=O)c1ccc(-c2cn([C@H](c3ccccc3)c3ccccn3)c3cc(-c4c(C)noc4C)cnc23)cc1 [P-0726, methyl 4-[6-(3,5-dimethylisoxazol-4-yl)-1-[(R)-phenyl(2-pyridyl)methyl]pyrrolo[3,2-b]pyridin-3-yl]benzoate]
> 5.00	Cc1ccc(-c2cn(CC3CCCCC3)c3cc(-c4c(C)noc4C)cnc23)cc1 [P-0622]
> 5.00	Cc1cc(-c2cnc3c(-c4ccc(C(=O)O)cc4)cn(CC4CCCCC4)c3c2)cn(C)c1=O [P-0759, 4-[1-(cyclohexylmethyl)-6-(1,5-dimethyl-6-oxo-3-pyridyl)pyrrolo[3,2-b]pyridin-3-yl]benzoic acid]
> 5.00	Cc1ccc(-c2cn([C@H](c3ccccc3)c3ccccn3)c3cc(-c4c(C)noc4C)ccc23)cc1 [P-0790, 3,5-dimethyl-4-[1-[(R)-phenyl(2-pyridyl)methyl]-3-(p-tolyl)indol-6-yl]isoxazole]
> 5.00	Cc1ccc(-c2cn(CC3(C)CCCCC3)c3cc(-c4c(C)noc4C)cnc23)cc1 [P-0792, 3,5-dimethyl-4-[1-[(1-methylcyclohexyl)methyl]-3-(p-tolyl)pyrrolo[3,2-b]pyridin-6-yl]isoxazole]
> 5.00	Cc1noc(C)c1-c1cnc2c(-c3ccc(C(=O)O)cc3)cn(C(c3ccccc3)c3ccccn3)c2c1 (stereo not drawn) [P-0611, 4-[6-(3,5-dimethylisoxazol-4-yl)-1-[phenyl(2-pyridyl)methyl]pyrrolo[3,2-b]pyridin-3-yl]benzoic acid]
